Measurements reported in patent US20050171424A1, “Methods for imaging the lymphatic system using dendrimer-based contrast agents” (The Gov. of the USA as rep. by the Secretary of the Dept. …, priority 2004, published 2005).
Entries after “also recorded” stand apart in the source; their conditions may differ.

Tests used:
[1] = system: external iliac lymph nodes in infection model; assay: 3D-micro-MRL of nude mice with spontaneous oral ulcers and urinary tract infections; type: in vivo; details: 45 minutes after injection, FIG. 16B
Experimental: (§1) In this example, the PAMAM-G8 contrast agent is compared to GPDM. PAMAM-G8 was prepared as described in Example 2, and GPDM was purchased (Schering AG, Berlin, Germany). Animal models, administration of the contrast agents, and 3D-micro-MRL were as described in Example 2.
Nude mice that develop spontaneous oral ulcers and urinary tract infections also were examined.

[2] = Distribution and survival properties of the dendrimer conjugates; details: in vivo
[3] = system: deep lymph nodes, thoracic duct and lymphatic vessels; assay: Whole-body 3D-micro-MR lymphangiography of normal mice, PAMAM-G8 versus GPDM (Example 3); type: in vivo
Experimental: (§2) The mice were anesthetized with 1.15 mg sodium pentobarbital (Dainabot, Osaka, Japan) i.p., and then injected intracutaneously with 0.1 μmolGd of PAMAM-G8, DAB-G5, PAMAM-G4, Gadomer-17, or GPDM into four middle phalanges in all four extremities. Dynamic micro-MR images were obtained using a 1.5-Tesla superconductive magnet unit (Signa LX, General Electric Medical System, Milwaukee, Wis.) with a round birdcage type coil of 3 cm diameter fixed by a custom-made coil holder. Four to eight female mice (7 weeks old, 18-21 g body weight) in each group were used and each contrast agent was prepared at least three separate times for these imaging studies. The mice were wrapped with gauze to stabilize their body temperature and were placed at the center of the coils.
(§3) A 3D-fast spoiled gradient echo [3D-fastSPGR (efgre3d package; Signa Horizon, GE); repetition time/echo time 28.5/7.9 msec; inversion time 65 msec; 31.2 kHz, flip angle 30°, four excitations; 40 slice-encoding steps; scan time 7 min 36 seconds] with chemical shift fat-suppression was used 10, 20, 30, and 45 min after injection of the contrast agents. The coronal images were reconstructed with 0.6-mm section thickness at every 0.3-mm. The FOV was 6×3 cm and the size of the matrix was 512×256. The intensities of the regions of interest (ROIs) (for example, a whole axillary lymph node, and the liver) were measured, and then the time-intensity curves analyzed. The data were expressed as the axillary lymph node-to-muscle and the axillary lymph node-to-liver ratios. The slice data were processed into 3D images using the MIP method with the same window and level (window 3500 and level 2300) (Advantage Windows, General Electric Medical System). Two board-certified radiologists separately read a set of stereo views of 3D-MRL for all studies, and estimated the visualization of the thoracic duct. After imaging, the mice were sacrificed by carbon dioxide inhalation.
as §1

[4] = system: lymph nodes and lymphatic vessels of IL-15 transgenic mice; assay: 3D-micro-MRL in IL-15 transgenic lymphoproliferative/neoplastic disease model; type: in vivo; details: 45 minutes after injection
Experimental: Eight- to 10-month old IL-15 transgenic mice (on a C57BL6 background) were used as a chronic lymphoproliferative/neoplastic disease model because they manifested selective expansion of NK, CD8^+NK-T, γδIELs, and CD8 T cells in the periphery. Most of the lymph nodes collected from an aged IL-15 transgenic mouse were enlarged in size. The lesion of proliferated monoclonal lymphocytes often involved the lung and the subcutaneous lymphatic tissue.
as §2
as §3, with “The FOV was 6×3 cm and the size of the matrix was 512×256.” left out, “The slice data were processed into 3D images using the MIP method with the same window and level (window 3500 and level 2300) (Advantage Windows, General Electric Medical System).” left out, “After imaging, the mice were sacrificed by carbon dioxide inhalation.” left out

deep lymphatic system = assay: Whole-body dynamic 3D-micro-MR lymphangiography of normal mice (Example 2); type: in vivo; details: for Number of Mice in Which the Thoracic Duct was Visualized/Number of Mice Examined: Normal Mice, 0.1 μmolGd intracutaneously into four middle phalanges
Experimental: as §2, §3
Statistical analyses were performed using either Student's t-test or a one-way analysis of variance (ANOVA), with a pairwise comparison using the Bonferroni method for signal intensity curves (Statview; SAS Institute Inc., Cary, N.C.).

[5] = system: lymph nodes infiltrated with MC-38 colorectal cancer cells; assay: 3D-MRL in MC38 colorectal cancer lymph node metastasis model; type: in vivo, C57BL6 mice
Experimental: In addition, 10-week-old C57BL6 mice (NCI, Frederick, Md.) bearing lymph node metastases of MC38 colorectal cancer cells following either intravenous or subcutaneous injection were used as a mouse model manifesting lymph node metastasis.
The mice were anesthetized with 1.15 mg sodium pentobarbital (Dainabot, Osaka, Japan) i.p., and then injected intracutaneously with 0.1 μmolGd of PAMAM-G8, DAB-G5, PAMAM-G4, Gadomer-17, or GPDM into four middle phalanges in all four extremities. […]
as §3, with “The coronal images were reconstructed with 0.6-mm section thickness at every 0.3-mm. The FOV was 6×3 cm and the size of the matrix was 512×256.” left out, “The slice data were processed into 3D images using the MIP method with the same window and level (window 3500 and level 2300) (Advantage Windows, General Electric Medical System).” left out, “After imaging, the mice were sacrificed by carbon dioxide inhalation.” left out

[6] = system: lymphatic vessels in Concanavalin A lymphangitis; assay: 3D-micro-MRL in Concanavalin A lymphangitis model; type: in vivo, C57BL6 mice; details: FIGS. 10, 14A
Experimental: To generate a lymphangitis model, Concanavalin A ([…]) (Sigma, St. Louis, Mo.) was injected intravenously into C57BL6 mice (NCI, Frederick, Md.) 24 hours before MRI was performed.
The mice were anesthetized with 1.15 mg sodium pentobarbital (Dainabot, Osaka, Japan) i.p., and then injected intracutaneously with 0.1 μmolGd of PAMAM-G8, DAB-G5, PAMAM-G4, Gadomer-17, or GPDM into four middle phalanges in all four extremities. Dynamic micro-MR images were obtained using a 1.5-Tesla superconductive magnet unit (Signa LX, General Electric Medical System, Milwaukee, Wis.) with a round birdcage type coil of 3 cm diameter fixed by a custom-made coil holder. […]
A 3D-fast spoiled gradient echo [3D-fastSPGR (efgre3d package; Signa Horizon, GE); repetition time/echo time 28.5/7.9 msec; inversion time 65 msec; 31.2 kHz, flip angle 30°, four excitations; 40 slice-encoding steps; scan time 7 min 36 seconds] with chemical shift fat-suppression was used 10, 20, 30, and 45 min after injection of the contrast agents. […] The intensities of the regions of interest (ROIs) (for example, a whole axillary lymph node, and the liver) were measured, and then the time-intensity curves analyzed. The data were expressed as the axillary lymph node-to-muscle and the axillary lymph node-to-liver ratios. […]

PAMAM-G7D-(Gd-1B4M)1024 dendrimer conjugate [PAMAM-G8]
Lymph node findings in infection model [1]: irregular dilation of the lymphatic vessels in the lymph nodes
Distribution within the lymphatic system [2]: lymphotropic behavior (accumulation in the lymph system) and minimal leakage out of the lymphatic vessels
Visualization of other lymphatic vessels [3]: better visualized with PAMAM-G8 than with GPDM
Visualization of deep lymph nodes throughout the body ([3]; intracutaneous injection, 0.05 mmolGd/kg (FIG. 13)): most deep lymph nodes throughout the body were visualized
Visualization of the thoracic duct ([3]; intracutaneous injection, FIG. 13): visualized in all six mice
Visualization of dilation of lymphatic vessels ([4]; FIG. 11): best visualized with PAMAM-G8
Lymph node findings on 3D-micro-MRL ([4]; FIGS. 11, 15A): considerable multiple lymph node swellings with central filling defects; also recorded: enlargement and a lack of enhancement within several of the lymph nodes
Number of Mice in Which the Thoracic Duct was Visualized/Number of Mice Examined (deep lymphatic system; 10 min): 10/10
Number of Mice in Which the Thoracic Duct was Visualized/Number of Mice Examined (deep lymphatic system; 20 min): 10/10
Number of Mice in Which the Thoracic Duct was Visualized/Number of Mice Examined (deep lymphatic system; 30 min): 10/10
Number of Mice in Which the Thoracic Duct was Visualized/Number of Mice Examined (deep lymphatic system; 45 min): 10/10
Axillary lymph node-to-background (muscle) signal intensity ratio, comparison between agents (deep lymphatic system; T1-weighted signal, all time points examined, P<0.01, FIG. 9A): significantly higher than that measured with Gadomer-17 and GPDM
Axillary lymph node-to-liver signal intensity ratio, comparison between agents (deep lymphatic system; all time points examined, P<0.01, FIG. 9B): nearly equivalent, but were significantly higher than that measured with GPDM
Visualization of the lymphatic vessels, comparison between agents (deep lymphatic system; normal mice): better visualized with PAMAM-G8 compared to all other agents examined
Visualization of the deep lymph nodes (deep lymphatic system; normal mice, 10 to 45 min after intracutaneous injection, FIGS. 7, 8): enabled most of the deep lymph nodes to be visualized
Visualization by a radiologist of the thoracic duct (deep lymphatic system; normal mice, all times after administration): in all mice at all times after administration
Findings on 3D-MRL in mouse with lymph node metastasis ([5]; 45 minutes after injection, FIG. 12 left image): dilated lymphatic vessels surrounding the tumor and a collateral lymphatic vessel
Findings on 3D-MRL in mice with subcutaneously xenografted MC-38 tumor ([5]; FIG. 12 right image): did not show any abnormalities in either the lymph nodes or the lymphatic vessels
Detection of dilation of the lymphatic vessels [6]: demonstrated the remarkable dilation of the lymphatic vessels throughout the body, especially in the liver; also recorded: able to detect remarkable dilation of lymphatic vessels
